Measurements from US4211779A, “7α-Methoxy substituted cephalosporins” (Shionogi & Co., Ltd., priority 1976, dated 1980).
≈ marks a conversion by molar mass, not a printed value.

What was measured:
Assay type in all cases: cell-based
[1] = system: Escherichia coli No. 73; experiment: Antibacterial activity (MIC), Escherichia coli No. 73
Protocol: (§1) Free acids found in Examples 2 to 5 are dissolved in dilute aqueous sodium hydrogencarbonate solution to yield the corresponding aqueous sodium salts solutions.

[2] = system: Klebsilla pneumoniae No. 363; experiment: Antibacterial activity (MIC), Klebsiella pneumoniae No. 363
Protocol: as §1

[3] = system: gram negative bacteria resistant to cephalosporins; experiment: antibacterial activity against gram negative bacteria resistant to cephalosporins; conditions: compared with the compound wherein Y is hydrogen
[4] = NO.363, Klebsiella pneumoniae No. 363, innoculum size 10^6
[5] = NO.363, Klebsiella pneumoniae No. 363, innoculum size 10^8

SMILES | MIC ([1]; innoculum size 10^6) [µg/mL] | MIC ([1]; innoculum size 10^8) [µg/mL] | MIC [2, 4] [µg/mL] | MIC [2, 5] [µg/mL] | antibacterial activity against gram negative bacteria resistant to cephalosporins [3]
CCN1CCN(C(=O)NC(C(=O)N[C@@H]2C(=O)N3C(C(=O)O)=C(CSc4nnnn4C)CS[C@H]23)c2ccc(O)cc2)C(=O)C1=O (stereo partly shown) [Y H] | 25 (≈ 38.7 µM) | > 100 | 100 (≈ 155 µM) | > 100 | 
CCN1CCN(C(=O)NC(C(=O)NC2(OC)C(=O)N3C(C(=O)O)=C(CSc4nnnn4C)CSC32)c2ccc(O)cc2)C(=O)C1=O (stereo not shown) [Y OCH3] | 1.6 (≈ 2.37 µM) | 3.1 (≈ 4.59 µM) | 0.8 (≈ 1.18 µM) | 1.6 (≈ 2.37 µM) | more potent antibacterial activity
CO[C@@]1(NC(=O)Cc2cccs2)C(=O)N2C(C(=O)O)=C(COC(N)=O)CS[C@@H]21 [cefoxitin] | 12.5 (≈ 29.2 µM) | 12.5 (≈ 29.2 µM) | 1.6 (≈ 3.74 µM) | 6.3 (≈ 14.7 µM) | 
